No end group written: not given here.
Columns and labels:
[1] = tested on: GST-CDK2 and GST-Cyclin A; assay: Titration of CDKSENS-Cy3 with recombinant CDK/Cyclins; format: binding; conditions: Cy3 label, compared with FITC label
[2] = tested on: CDK1, CDK2, Cyclin A, Cyclin B or Cyclin E in HeLa cells; assay: Subcellular colocalization by indirect immunofluorescence and confocal microscopy; format: cell-based; conditions: delivered with CADY2, fixed cells, confocal microscopy
Method: Antibodies against Cyclin A (H432, sc-751), Cyclin B1 (GNS1, sc-245), Cyclin D1 (C20, sc-717), Cdk1 (C19, sc-954) Cdk2 (M2, sc-163), and Cdk4 (C22, sc-260) were purchased from Tebu-Bio (Santa-Cruz), anti-actin from Sigma (A2668), and used at 1∶1000 dilution for Western blotting, except for anti-cyclin B1 at 1∶500 dilution, 1∶100 for indirect imunofluorescence. Secondary antibodies labelled with Alexa-488 were used for indirect immunofluorescence.
For fixed observations, cells were treated for 20 minutes with paraformaldehyde, nuclei were stained with Hoechst 33342 (Sigma), and cells were mounted with Prolong Gold AntiFade Reagent (Invitrogen). Epifluorescence images were acquired on a Leica DM6000 microscope (Leica Microsystems) piloted by the Metamorph software (Universal Imaging). For colocalization experiments, images were acquired on a Zeiss axioplan2/LSM510 META confocal microscope. Live-cell imaging was performed on a Zeiss Axiovert 200 M piloted by the Metamorph software. Images were processed with ImageJ software.

[3] = tested on: CDK/Cyclins in HS68 cells; assay: Live-cell ratiometric quantification of CDKSENS-Cy3/Ctrl-Cy5 fluorescence; format: cell-based, human
Method: Cell culture media, serum and antibiotics were purchased from Invitrogen. HeLa, HS68, A549, MCF-7 and U2OS cells were obtained from ATCC and were cultured in Dulbecco's Modified Eagle Medium (DMEM)+Glutamax supplemented with 10% Fetal Calf Serum (FCS), 1 mM penicillin and 1 mM streptomycin at 37°C in an atmosphere containing 5% CO2. HT2-19 cells, provided by Dr. A.Porter, were cultured in DMEM supplemented with non essential amino acids, antibiotics, sodium pyruvate, glutamine, and 10% FCS and grown with 50 uM isopropyl-thiogalactoside (IPTG) for maximal induction of CDK1 [28]. […] Samples were then processed for SDS-PAGE and CDK, Cyclin retention was detected by Western blotting. […]
CDKSENS-Cy3 and Ctrl-Cy5 were complexed individually with CADY2 and codelivered into cells. Live-cell imaging acquisitions were substracted for background signal corresponding to minimal fluorescence levels using Metamorph. […] Regions of interest (ROI) corresponding to 10–15 cells in which fluorescence appeared homogeneous were designed and the mean grey levels of fluorescence for each channel (Cy3 and Cy5) were quantified within these ROIs. For each experiment, and the mean ratiometric value of CDKSENS-Cy3/Ctrl-Cy5 was calculated from 3–4 different ROIs. Each experiment was performed 3–4 times to assess the robustness of the quantification strategy. […]

For “CDKSENS-Cy3: CDKSENS labelled with cyanine probe Cy3 (C(Cy3 maleimide)DKSENS)”, the “sensitivity in reporting on the presence of CDK/Cyclins in vitro” value [1] was “equally sensitive”, the “colocalization with CDKs and cyclins” value [2] was “did not reveal significant lack of colocalization” and the “Relative Mean Ratiometric Value” ([3]; HS68, normalized to HeLa mean) was 0.85+/−0,048. The “average difference in CDKSENS-Cy3/Ctrl-Cy5 ratio, HeLa greater than HS68” value ([3]; HeLa vs HS68, average) was 15%.
